Laboratory results published in patent publication US8343475B2, “Small cationic antimicrobial peptides” (priority 2006, dated 2013).
Values after ≈ are worked out from the molar mass of the structure shown. Where two headings read alike, the source gives them in different places. Residues, ends and D or L forms follow the SMILES beside them.

Legend:
Assay type in all cases: cell-based
[1] = tested on: Pseudomonas aeruginosa PAO1 strain H103
Experimental: The biological activity of the peptides can be determined by standard methods known to those of skill in the art, such as “minimal inhibitory concentration (MIC)” assay described in the present examples, whereby the lowest concentration at which no change in OD is observed for a given period of time is recorded as MIC.
(§1) Minimal inhibitory concentration (MIC) determination. The MIC of the peptides were measured using a modified broth microdilution method in Mueller Hinton (MH) medium (Wu M, Hancock R E W. 1999. Interaction of the cyclic antimicrobial cationic peptide bactenecin with the outer and cytoplasmic membrane. J Biol Chem 274, 29-35). Briefly, the peptides were dissolved and stored in glass vials. The assay was performed in sterile 96-well polypropylene microtitre plates were used. Serial dilutions of the peptides to be assayed were performed in 0.01% acetic acid (Fisher) containing 0.2% bovine serum albumin (Boehringer Mannheim GmbH) at 10× the desired final concentration. Ten microlitres of the 10× peptides were added to each well of a 96-well polypropylene plate containing 90 μl of MH media per well. Bacteria were added to the plate from an overnight culture at 2-7×10^5 colony forming units/ml and incubated over night at 37° C. The MIC was taken as the concentration at which no growth was observed.
(§2) Strains. For the killing assay a mini-Tn5-lux mutant in Pseudomonas aeruginosa H103 was used. The strain is called H1001 and contains a fliC::luxCDABE transcriptional fusion resulting in constitutive expression of luciferase. The bacterial strains used for the antimicrobial activity assays included Escherichia coli UB1005 (F-, nalA37, metB1), a wild-type Salmonella enterica ssp. typhimurium (S. typhimurium), wild-type Pseudomonas aeruginosa PAO1 strain H103, Enterococcus faecalis ATCC29212, Staphylococcus aureus ATCC25923, and a clinical isolate of Staphylococcus epidermidis obtained from Dr. D. Speert (Department of Medicine, University of British Columbia). Antifungal activity was tested using a lab isolate of Candida albicans obtained from Dr. B. Dill (Department of Microbiology and Immunology, University of British Columbia).

[2] = tested on: Enterococcus faecalis ATCC29212
Experimental: as §1, §2

[3] = tested on: Escherichia coli UB1005
Experimental: as §1, §2

[4] = tested on: Staphylococcus aureus ATCC25923
Experimental: as §1, §2

[5] = tested on: clinical isolate of Staphylococcus epidermidis
Experimental: as §1, §2

[6] = tested on: lab isolate of Candida albicans
Experimental: as §1, §2

[7] = tested on: wild-type Salmonella enterica ssp. typhimurium
Experimental: as §1, §2

[8] = indolicidin substitution variants (Table 4)

SMILES | MIC P. aerug ([1]; PAO1) [µg/mL] | MIC E. faecalis ([2]; ATCC29212) [µg/mL] | MIC E. coli ([3]; UB1005) [µg/mL] | MIC S. aureus ([4]; ATCC25923) [µg/mL] | MIC S. epi. ([5]; clinical isolate of) [µg/mL] | MIC C. albicans ([6]; lab isolate of) [µg/mL] | MIC S. typhi [7] [µg/mL] | MIC E. coli [3, 8] [µg/mL] | MIC P. aerug [1, 8] [µg/mL] | MIC E. faecalis [2, 8] [µg/mL] | MIC S. aureus [4, 8] [µg/mL] | MIC S. epi. [5, 8] [µg/mL] | MIC C. albicans [6, 8] [µg/mL]
CC[C@H](C)[C@H](NC(=O)[C@H](CCCNC(=N)N)NC(=O)[C@H](CC(C)C)NC(=O)[C@H](CCCNC(=N)N)NC(=O)[C@@H](N)C(C)C)C(=O)N[C@@H](CCCNC(=N)N)C(=O)N[C@H](C(=O)N[C@@H](CCCNC(=N)N)C(=O)N[C@H](C(=O)N[C@H](C(=O)N[C@@H](CCCNC(=N)N)C(=O)N[C@@H](CCCCN)C(N)=O)[C@@H](C)CC)C(C)C)C(C)C [HH11, VRLRIRVRVIRK] (H-VRLRIRVRVIRK-NH2; N-terminus assumed) | 3 (≈ 1.92 µM) | 12 (≈ 7.68 µM) | 1.6 (≈ 1.02 µM) | 6 (≈ 3.84 µM) | 0.8 (≈ 0.512 µM) | 3 (≈ 1.92 µM) | 6 (≈ 3.84 µM) |  |  |  |  |  | 
CC[C@H](C)[C@H](NC(=O)[C@H](CCCNC(=N)N)NC(=O)[C@H](Cc1c[nH]c2ccccc12)NC(=O)[C@H](CCC(N)=O)NC(=O)[C@@H](N)Cc1c[nH]cn1)C(=O)N[C@@H](CCCNC(=N)N)C(=O)N[C@H](C(=O)N[C@@H](C)C(=O)N[C@H](C(=O)N[C@@H](CCCNC(=N)N)C(=O)N[C@@H](CCCNC(=N)N)C(=O)N[C@@H](Cc1c[nH]cn1)C(N)=O)C(C)C)C(C)C [HH14, HQWRIRVAVRRH] (H-HQWRIRVAVRRH-NH2) | 50 (≈ 31 µM) | >50 | 6 (≈ 3.72 µM) | 25 (≈ 15.5 µM) | 12 (≈ 7.44 µM) | 25 (≈ 15.5 µM) | 25 (≈ 15.5 µM) |  |  |  |  |  | 
CC[C@H](C)[C@H](NC(=O)[C@H](CCCNC(=N)N)NC(=O)[C@H](Cc1ccccc1)NC(=O)[C@H](CCCNC(=N)N)NC(=O)[C@@H](N)CCCCN)C(=O)N[C@@H](CCCNC(=N)N)C(=O)N[C@H](C(=O)N[C@@H](CCCNC(=N)N)C(=O)N[C@H](C(=O)N[C@H](C(=O)N[C@@H](CCCNC(=N)N)C(=O)N[C@@H](CCCCN)C(N)=O)[C@@H](C)CC)C(C)C)C(C)C [HH15, KRFRIRVRVIRK] (H-KRFRIRVRVIRK-NH2) | 6 (≈ 3.69 µM) | 25 (≈ 15.4 µM) | 1.6 (≈ 0.984 µM) | 6 (≈ 3.69 µM) | 0.8 (≈ 0.492 µM) | 12 (≈ 7.38 µM) | 3 (≈ 1.84 µM) |  |  |  |  |  | 
CC[C@H](C)[C@H](NC(=O)[C@H](CCCNC(=N)N)NC(=O)[C@H](Cc1c[nH]c2ccccc12)NC(=O)[C@H](CCCNC(=N)N)NC(=O)[C@@H](N)CCCCN)C(=O)N[C@@H](CCCNC(=N)N)C(=O)N[C@H](C(=O)N[C@@H](CCCNC(=N)N)C(=O)N[C@H](C(=O)N[C@H](C(=O)N[C@@H](CCCNC(=N)N)C(=O)N[C@@H](CCCCN)C(N)=O)[C@@H](C)CC)C(C)C)C(C)C [HH16, KRWRIRVRVIRK] (H-KRWRIRVRVIRK-NH2) | 3 (≈ 1.8 µM) | 12 (≈ 7.21 µM) | 1.6 (≈ 0.961 µM) | 3 (≈ 1.8 µM) | 0.8 (≈ 0.48 µM) | 6 (≈ 3.6 µM) | 3 (≈ 1.8 µM) |  |  |  |  |  | 
CC[C@H](C)[C@H](NC(=O)[C@@H](N)CCCCN)C(=O)N[C@@H](Cc1c[nH]c2ccccc12)C(=O)N[C@H](C(=O)N[C@@H](CCCNC(=N)N)C(=O)N[C@@H](Cc1c[nH]c2ccccc12)C(=O)N[C@@H](CCCCN)C(N)=O)C(C)C [HH17, KIWVRWK-NH2] (H-KIWVRWK-NH2) | >50 | >50 | 50 (≈ 49.3 µM) | >50 | >50 | >50 | >50 |  |  |  |  |  | 
CC[C@H](C)[C@H](N)C(=O)N[C@@H](CC(C)C)C(=O)N1CCC[C@H]1C(=O)N[C@@H](Cc1c[nH]c2ccccc12)C(=O)N[C@@H](CCCCN)C(=O)N[C@@H](CCCCN)C(=O)N1CCC[C@H]1C(=O)N[C@@H](Cc1c[nH]c2ccccc12)C(=O)N[C@@H](Cc1c[nH]c2ccccc12)C(=O)N1CCC[C@H]1C(=O)N[C@@H](Cc1c[nH]c2ccccc12)C(=O)N[C@@H](CCCNC(=N)N)C(=O)N[C@@H](CCCNC(=N)N)C(N)=O [HH113, ILPWKKPWWPWRR] (H-ILPWKKPWWPWRR-NH2; N-terminus assumed) | 31 (≈ 16.8 µM) | 125 (≈ 67.6 µM) |  | 31 (≈ 16.8 µM) | 8 (≈ 4.33 µM) | 62 (≈ 33.5 µM) | 62 (≈ 33.5 µM) | 31 (≈ 16.8 µM) |  |  |  |  | 
CC[C@H](C)[C@H](N)C(=O)N[C@@H](CC(C)C)C(=O)N[C@@H](CCCCN)C(=O)N[C@@H](Cc1c[nH]c2ccccc12)C(=O)N[C@@H](CCCCN)C(=O)N[C@@H](Cc1c[nH]c2ccccc12)C(=O)N1CCC[C@H]1C(=O)N[C@@H](Cc1c[nH]c2ccccc12)C(=O)N[C@@H](Cc1c[nH]c2ccccc12)C(=O)N[C@@H](CCCCN)C(=O)N[C@@H](Cc1c[nH]c2ccccc12)C(=O)N[C@@H](CCCNC(=N)N)C(=O)N[C@@H](CCCNC(=N)N)C(N)=O [HH970, ILKWKWPWWKWRR] (H-ILKWKWPWWKWRR-NH2; N-terminus assumed) | 16 (≈ 8.13 µM) | 31 (≈ 15.7 µM) |  | 8 (≈ 4.06 µM) | 2 (≈ 1.02 µM) | 16 (≈ 8.13 µM) | 16 (≈ 8.13 µM) | 8 (≈ 4.06 µM) |  |  |  |  | 
CC[C@H](C)[C@H](N)C(=O)N[C@@H](CC(C)C)C(=O)N1CCC[C@H]1C(=O)N[C@@H](Cc1c[nH]c2ccccc12)C(=O)N[C@@H](CCCCN)C(=O)N[C@@H](Cc1c[nH]c2ccccc12)C(=O)N[C@@H](CCCNC(=N)N)C(=O)N[C@@H](Cc1c[nH]c2ccccc12)C(=O)N[C@@H](Cc1c[nH]c2ccccc12)C(=O)N[C@@H](CCCCN)C(=O)N[C@@H](Cc1c[nH]c2ccccc12)C(=O)N[C@@H](CCCNC(=N)N)C(=O)N[C@@H](CCCNC(=N)N)C(N)=O [HH971, ILPWKWRWWKWRR] (H-ILPWKWRWWKWRR-NH2; N-terminus assumed) | 16 (≈ 8.01 µM) | 31 (≈ 15.5 µM) |  | 8 (≈ 4.01 µM) | 2 (≈ 1 µM) | 8 (≈ 4.01 µM) | 16 (≈ 8.01 µM) | 8 (≈ 4.01 µM) |  |  |  |  | 
CC(C)C[C@H](NC(=O)[C@@H](N)Cc1ccccc1)C(=O)N1CCC[C@H]1C(=O)N[C@@H](CCCCN)C(=O)N[C@@H](CCCCN)C(=O)N[C@@H](Cc1ccccc1)C(=O)N[C@@H](CCCNC(=N)N)C(=O)N[C@@H](Cc1c[nH]c2ccccc12)C(=O)N[C@@H](Cc1c[nH]c2ccccc12)C(=O)N[C@@H](CCCCN)C(=O)N[C@@H](Cc1ccc(O)cc1)C(=O)N[C@@H](CCCNC(=N)N)C(=O)N[C@@H](CCCCN)C(N)=O [HH972, FLPKKFRWWKYRK] (H-FLPKKFRWWKYRK-NH2; N-terminus assumed) | 31 (≈ 16.5 µM) | >125 |  | 31 (≈ 16.5 µM) | 8 (≈ 4.25 µM) | 31 (≈ 16.5 µM) | 31 (≈ 16.5 µM) | 16 (≈ 8.5 µM) |  |  |  |  | 
CC[C@H](C)[C@H](N)C(=O)N[C@@H](CC(C)C)C(=O)N1CCC[C@H]1C(=O)N[C@@H](Cc1c[nH]c2ccccc12)C(=O)N[C@@H](CCCCN)C(=O)N[C@@H](Cc1c[nH]c2ccccc12)C(=O)N1CCC[C@H]1C(=O)N[C@@H](Cc1c[nH]c2ccccc12)C(=O)N[C@@H](Cc1c[nH]c2ccccc12)C(=O)N1CCC[C@H]1C(=O)N[C@@H](Cc1c[nH]c2ccccc12)C(=O)N[C@@H](CCCNC(=N)N)C(=O)N[C@@H](CCCNC(=N)N)C(N)=O [Indolicidin, ILPWKWPWWPWRR-NH2, reference compound] |  |  |  |  |  |  | 31 (≈ 16.3 µM) | 8 (≈ 4.2 µM) | 62 (≈ 32.5 µM) | 31 (≈ 16.3 µM) | 16 (≈ 8.39 µM) | 8 (≈ 4.2 µM) | 16 (≈ 8.39 µM)
